The record followed here is PubChem BioAssay (NCI).

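Interpolation was linear, between the two tested concentrations surrounding the appropriate level; five concentrations were tested over 48 hours in 96-well plates. TGI is the concentration that stops growth completely.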 Bounds are passed on as bounds.

Common to all, as to test: inhibition of tumour cell growth, NCI panel, 48 h
The test system of assay [1] is SW-620 colon.
Assay [2] concerns DU-145 prostate.
In assay [3] the test system is EKVX NSCLC.
Assay [4] relates to SN12C renal.
Assay [5] has as its system NCI/ADR-RES ovarian.
In assay [6] the test system is NCI-H23 lung.
For assay [7], the system named is OVCAR-8 ovarian.
The subject of assay [8] is SK-MEL-2 melanoma.
In assay [9] the test system is SNB-75 CNS.
For assay [10], the system named is MOLT-4 leukemia.
Assay [11] relates to SK-OV-3 ovarian.
The test system of assay [12] is SF-539 CNS.
Assay [13] deals with ACHN renal.
Assay [14] deals with M14 melanoma.
Assay [15] relates to UACC-257 melanoma.
The test system of assay [16] is SR leukemia.

For `O=[N+]([O-])c1ccc2c(c1)N([O-])C1(CCCCC1)[N+]2=O`, the TGI came out at 56 µM in assay [1]; 33.9 µM in [2]; 29.6 µM in assay [3]; 35.1 µM in [4]; 77.7 µM in assay [5]; 66.3 µM in [6]. The TGI in assay [7] came to 42.6 µM; in [8] it was 52.1 µM; in assay [9], 33.2 µM; in assay [10] it was 51.9 µM; in assay [11] it was 44.2 µM; in assay [12] it was 33.6 µM. Also, the TGI is 33.8 µM in assay [13], 30.5 µM in assay [14], 29.4 µM in assay [15] and 51.5 µM in assay [16].

On to `CCN1CCC(O)(c2ccc(Oc3ccc(F)cc3)cc2)C(C(=O)c2ccc(Oc3ccc(F)cc3)cc2)C1` (stereo not drawn), for which the TGI in assay [1] was found to be 30.3 µM; in [2], 24.7 µM; in [3], 31.8 µM; in [4] it was 27.5 µM; in assay [5], 30.1 µM; in [6], 28 µM. Besides, the TGI in assay [7] was found to be 30.7 µM; in assay [8] it was 31.6 µM; in [9] it was 30.3 µM; in assay [10], 41.3 µM; in assay [11], 32.2 µM; in assay [12] it was 33.2 µM. Besides, the TGI in assay [13] was 26.8 µM; in assay [14], 30.9 µM; in assay [15], 29.8 µM; in [16], 6.5 µM.

With `c1ccc(C(NCC2CCO2)(c2ccccc2)c2ccccc2)cc1` (stereo not drawn), the TGI in assay [1] came out at 44.4 µM; in [2], 71.3 µM; in [3], 30.8 µM; in [4], 51.3 µM; in assay [5] it was 28.9 µM; in [6] it was 30.9 µM. The TGI in [7] was 26.6 µM; in [8] it was 42.5 µM; in [9] it was 28.8 µM; in assay [10], more than 100 µM; in assay [11], 34.2 µM; in assay [12], 33.6 µM. The TGI is 29 µM in assay [13], 32.1 µM in [14], 39.5 µM in [15] and more than 100 µM in assay [16].

In the case of `Cc1nc(C)c(N2CCN(S(=O)(=O)N(Cc3ccccc3)Cc3ccccc3)CC2)c(=O)[nH]1`, the TGI in assay [1] is more than 100 µM; in assay [2], more than 100 µM; in [3], more than 100 µM; in [4] it was more than 100 µM; in assay [5], more than 100 µM; in assay [6] it was 56.5 µM. Besides, the TGI in assay [7] is 54.1 µM; in assay [8] it was more than 100 µM; in assay [9], 32.9 µM; in assay [10], more than 100 µM; in assay [11] it was more than 54.2 µM; in [12], 42.5 µM. In addition, the TGI in [13] was more than 73 µM; in assay [14], more than 100 µM; in assay [15] it was more than 100 µM; in [16], more than 100 µM.

With `COC(=O)CCC1=C(CC(=O)OC)C(C)(OC)N=C1NC(=O)OCc1ccccc1` (stereo not drawn), the TGI in assay [1], in assay [2], in assay [3], in assay [4], in [5] and in assay [6] was more than 100 µM throughout. Besides, the TGI in [7], in assay [8], in assay [9], in assay [10], in assay [11] and in [12] was more than 100 µM each time. For the same compound, the TGI in assay [13], in assay [14], in assay [15] and in assay [16] was more than 100 µM each time.

`COc1ccc2nc(-c3ccccc3)cc(OCC(=O)O)c2c1`: the TGI in [1], in assay [2], in assay [3], in assay [4], in assay [5] and in assay [6] was more than 100 µM throughout. The TGI in assay [7], in [8], in assay [9], in [10], in assay [11] and in assay [12] was more than 100 µM in each case. Besides, the TGI in [13], in assay [14], in [15] and in [16] was more than 100 µM in each case.

As to `c1ccc2c(c1)c1c(n2CCOCCN2CCCC2)CCCC1`, the TGI is 32.1 µM in assay [1]; 87.2 µM in assay [2]; 75.2 µM in assay [3]; 33.6 µM in assay [4]; 44.3 µM in [5]; 65.2 µM in assay [6]. Also, the TGI in assay [7] is 57.6 µM; in assay [8], 30.7 µM; in [9], 76 µM; in assay [10], 34.3 µM; in [11], 87.7 µM; in assay [12], 29.9 µM. For the same compound, the TGI in assay [13] came to 42.1 µM; in assay [14] it was 29.5 µM; in assay [15] it was 53 µM; in [16] it was 35.2 µM.

With `CC(=O)OC12C3C4C1C1C2C3C41OC(C)=O` (stereo not drawn), the TGI in [1], in [2], in assay [3], in assay [4], in assay [5] and in assay [6] was more than 100 µM in each case. Also, the TGI in assay [7], in [8], in assay [9], in assay [10], in [11] and in assay [12] was more than 100 µM throughout. For the same compound, the TGI in [13], in [14], in [15] and in assay [16] was more than 100 µM each time.

`COc1ccc(C2OC(=O)c3ccc4ccccc4c32)c(C)c1` (stereo not drawn): the TGI in assay [1] was more than 72.9 µM; in assay [2] it was more than 100 µM; in [3], more than 87.8 µM; in [4] it was more than 100 µM; in [5] it was 5.61 µM; in assay [6], 41.8 µM. Moreover, the TGI was 56.5 µM in assay [7]; 18.4 µM in assay [8]; 44.7 µM in assay [9]; more than 39.8 µM in assay [10]; 60.1 µM in assay [11]; 40.5 µM in assay [12]. Moreover, the TGI in [13] was more than 100 µM; in [14], more than 38 µM; in assay [15], more than 100 µM; in assay [16], more than 89.7 µM.

Turning to `O=C(O)Cc1ccc(Nc2nc3cc(C(F)(F)F)ccc3nc2C(=O)O)cc1`, the TGI in assay [1], in [2], in [3], in assay [4], in assay [5] and in assay [6] was more than 100 µM each time. Further, the TGI in assay [7], in [8], in [9], in [10], in [11] and in [12] was more than 100 µM each time. In addition, the TGI in assay [13], in [14], in assay [15] and in [16] was more than 100 µM each time.

For the compound `Cc1ccc(/C=N/n2c(-c3ccc(C)cc3)n[nH]c2=O)cc1`, the TGI in [1], in assay [2], in [3], in assay [4], in [5] and in assay [6] was more than 100 µM each time. Moreover, the TGI in assay [7] was more than 100 µM; in [8] it was more than 100 µM; in [9], more than 100 µM; in assay [10] it was more than 100 µM; in assay [11], 66.9 µM; in assay [12] it was more than 100 µM. Also, the TGI in [13] was more than 100 µM; in assay [14], more than 100 µM; in assay [15], more than 100 µM; in [16] it was 61.3 µM.

For the compound `O=C(/C=C/c1cccc(Oc2ccccc2)c1)NCc1ccc(C(=O)NCc2ccccc2)cc1`, the TGI in assay [1], in assay [2], in assay [3], in assay [4], in [5] and in assay [6] was more than 100 µM throughout. In addition, the TGI is more than 100 µM in assay [7]; more than 100 µM in assay [8]; 53.3 µM in assay [9]; more than 100 µM in assay [10]; 29.8 µM in [11]; more than 100 µM in assay [12]. Moreover, the TGI in assay [13], in [14], in [15] and in assay [16] was more than 100 µM in each case.

Consider `CCCC(CCC(N)=O)(CCC(N)=O)[N+](=O)[O-]`, for which the TGI in assay [1], in assay [2], in assay [3], in assay [4], in [5] and in [6] was more than 100 µM each time. Besides, the TGI in [7], in assay [8], in [9], in [10], in assay [11] and in assay [12] was more than 100 µM each time. Also, the TGI in [13], in assay [14], in assay [15] and in assay [16] was more than 100 µM each time.
